Test results from US20130261045A1, “GREEN TEA POLYPHENOL ALPHA SECRETASE ENHANCERS AND METHODS OF USE” (UNIVERSITY OF SOUTH FLORIDA, priority 2005, published 2013).

Legend:
[1] = tested on: ADAM10; test: Western blot of ADAM10 maturation in SweAPP N2a cells; type: cell-based, murine
Experimental: Cultured cells were lysed in ice-cold lysis buffer described above, and an aliquot corresponding to 50 μg of total protein was electrophoretically separated using 16.5% Tris-tricine gels. Electrophoresed proteins were then transferred to PVDF membranes (Bio-Rad, Richmond, Calif.), washed in ddH2O, and blocked for 1 h at ambient temperature in Tris-buffered saline (TBS; Bio-Rad) containing 5% (w/v) non-fat dry milk. After blocking, membranes were hybridized for 1 h at ambient temperature with various primary antibodies. Membranes were then washed 3 times for 5 min each in ddH2O and incubated for 1 h at ambient temperature with the appropriate HRP-conjugated secondary antibody (1:1,000, Pierce Biotechnology, Inc. Rockford, Ill.). All antibodies were diluted in TBS containing 5% (w/v) of non-fat dry milk. Blots were developed using the luminol reagent (Pierce Biotechnology). Densitometric analysis was done using the Fluor-S MultiImager™ with Quantity One™ software (Bio-Rad). For examining sAPP-α, conditioned medium was collected following treatment according to a modified protocol from Chen and Fernandez (Chen et al., 2004). sAPP-α was extracted using 3K Nanosep centrifugal filters (Pall Life Sciences, Ann Arbor, Mich.) and protein concentrate was prepared for the aforementioned electrophoresis. […]

[2] = tested on: transgenic APPsw mice; test: EGCG ICV injection of transgenic APPsw mice (cerebral Aβ, α-secretase activity); type: in vivo; settings: ICV 10 μg/mouse once; 24 hours
Experimental: Cultured cells were lysed in ice-cold-lysis buffer (20 mM Tris, pH 7.5, 150 mM NaCl, 1 mM EDTA, 1 mM EGTA, 1% v/v Triton X-100, 2.5 mM sodium pyropgosphate, 1 mM β-glycerolphosphate, 1 mM Na3VO4, 1 μg/mL leupeptin, 1 mM PMSF) as previously described (Tan et al., 2002). Mouse brains were isolated under sterile conditions on ice and placed in ice-cold lysis buffer. Brains were then sonicated on ice for approximately 3 min, allowed to stand for 15 min at 4° C., and centrifuged at 15,000 rpm for 15 min. Total Aβ1-42 species were detected by acid extraction of brain homogenates in 5 M guanidine buffer (ret), followed by a 1:10 dilution in lysis buffer. Soluble Aβ1-42 was directly detected in cultured cell lysates or brain homogenates prepared with lysis buffer described above by a 1:4 or 1:10 dilution, respectively. Aβ1-42 was quantified in these samples using the Aβ1-42 ELISA kit (BioSource, Camarillo, Calif.) in accordance with the manufacturer's instructions, except that standards included a 0.5 M guanidine buffer.
Cultured cells and mouse brain were lysed in ice-cold lysis buffer described above, and an aliquot corresponding to 50 μg of total protein was electrophoretically separated using 16.5% Tris-tricine gels. Electrophoresed proteins were then transferred to PVDF membranes (Bio-Rad), washed in dH2O, and blocked for 1 hour at ambient temperature in Tris-buffered saline (TBS; Bio-Rad) containing 5% (w/v) for non-fat dry milk. […] Densitometric analysis was done using the Fluor-S Multimager™ with Quantity One™ software (Bio-Rad). […] Antibodies used for Western blot included antibody 369 (1:1,000), anti-C-terminal APP antibody (1:500; Chemicon, Temecula, Calif.), BAM-10 (1:1,000; Sigma), 6E10 (1:1,000; Signet) or anti-Actin antibody (1:1,500; as an internal reference control; Roche). α-, β- and γ-secretase activities were quantified in cell lysates and mouse brain homogenates using available kits based on secretase-specific peptides conjugated to fluorogenic receptor molecules (R&D Systems, Minneapolis, Minn.). […]

[3] = tested on: APP cleavage processing; test: Western blot/immunoprecipitation of APP cleavage (CTFs, sAPP-α, holo APP) in APP-transfected N2a cells; type: cell-based, murine
Experimental: Cell cultured supernatants were collected and cell lysates were prepared from these cultured cells.
Cultured cells and mouse brain were lysed in ice-cold lysis buffer described above, and an aliquot corresponding to 50 μg of total protein was electrophoretically separated using 16.5% Tris-tricine gels. Electrophoresed proteins were then transferred to PVDF membranes (Bio-Rad), washed in dH2O, and blocked for 1 hour at ambient temperature in Tris-buffered saline (TBS; Bio-Rad) containing 5% (w/v) for non-fat dry milk. After blocking, membranes were hybridized for 1 hour at ambient temperature with various antibodies, including against the C- (369), N-terminus of APP (22C11), the N-terminus of Aβ (6E10), and ADAM10 and TACE (Calbiochem). Membranes were then washed 3× for 5 min each in dH2O and incubated for 1 hour at ambient temperature with the appropriate HRP-conjugated secondary antibody (1:1,000, Pierce Biotechnology, Inc. Rockford, Ill.). All antibodies were diluted in TBS containing 5% (w/v) of non-fat dry milk. Blots were developed using the luminal reagent (Pierce Biotechnology). Densitometric analysis was done using the Fluor-S Multimager™ with Quantity One™ software (Bio-Rad). Immunoprecipitation was performed for detection of sAPP-α, sAPP-β and Aβ by incubating 200 μg of total protein of each sample with 6E10 (1:100; Signet) or 22C11 (1:100; Roche, Basel, Switzerland) overnight with gentle rocking at 4° C., and 10 μL of 50% protein A-Sepharose beads were then added to the sample (1:10; Sigma) prior to gentle rocking for an additional 4 hours at 4° C. Following washes with 1× cell lysis buffer, samples were subjected to Western blot as described above. Antibodies used for Western blot included antibody 369 (1:1,000), anti-C-terminal APP antibody (1:500; Chemicon, Temecula, Calif.), BAM-10 (1:1,000; Sigma), 6E10 (1:1,000; Signet) or anti-Actin antibody (1:1,500; as an internal reference control; Roche). α-, β- and γ-secretase activities were quantified in cell lysates and mouse brain homogenates using available kits based on secretase-specific peptides conjugated to fluorogenic receptor molecules (R&D Systems, Minneapolis, Minn.).

[4] = tested on: ADAM10 mRNA; test: RT-PCR of ADAM10 mRNA in SweAPP N2a cells; type: cell-based, murine; settings: various doses of EGCG, 8 h
Experimental: Analysis of murine ADAM10 was conducted according to previously published methods (Ehrhart et al., 2005; Park et al., 2001). Briefly, total RNA was isolated from SweAPP N2a cells and subjected to reverse transcription utilizing a commercially available kit (cDNA Cycle® kit; Invitrogen, Carlsbad, Calif.) according to the manufacturer's instructions on a Bio-Rad iCycler thermocycler. […] Thermocycler conditions consisted of an initial denaturing step at 95° C. for 15 min, followed by 35 cycles of 94° C. for 30 s, 50° C. for 1 min, and 72° C. for 1 min at, and a final extension step at 72° C. for 10 min. Resolution and analysis of PCR products (murine ADAM10: 881 bp, murine γ-actin: 357 bp) band densities was conducted by ethidium bromide-stained agarose gel electrophoresis and identified using UV transillumination by comparisons with molecular weight markers (Invitrogen). Samples that were not subjected to reverse transcription were run in parallel as negative controls to rule out DNA contamination as a template for PCR products (data not shown). A “no template control” was also included for each primer set as a further negative control (data not shown). Amplification of γ-actin was used to normalize for input cDNA.

[5] = tested on: TNF-α; test: TNF-α levels in cultured medium of microglial cells; type: cell-based; settings: EGCG treatment, data not shown
Excerpt: It has been shown that TACE is critically involved in TNF-α maturation associated with pro-inflammatory responses (Moro, M. A. et al., 2003).

[6] = tested on: ADAM10; test: Western blot of ADAM10 maturation in primary murine neuronal cultures; type: cell-based; settings: various doses, 8 h
Experimental: Cultured cells were lysed in ice-cold lysis buffer described above, and an aliquot corresponding to 50 μg of total protein was electrophoretically separated using 16.5% Tris-tricine gels. Electrophoresed proteins were then transferred to PVDF membranes (Bio-Rad, Richmond, Calif.), washed in ddH2O, and blocked for 1 h at ambient temperature in Tris-buffered saline (TBS; Bio-Rad) containing 5% (w/v) non-fat dry milk. After blocking, membranes were hybridized for 1 h at ambient temperature with various primary antibodies. Membranes were then washed 3 times for 5 min each in ddH2O and incubated for 1 h at ambient temperature with the appropriate HRP-conjugated secondary antibody (1:1,000, Pierce Biotechnology, Inc. Rockford, Ill.). All antibodies were diluted in TBS containing 5% (w/v) of non-fat dry milk. Blots were developed using the luminol reagent (Pierce Biotechnology). Densitometric analysis was done using the Fluor-S MultiImager™ with Quantity One™ software (Bio-Rad). […] Antibodies used for Western blot included: antibody 369 (which recognizes the carboxyl-terminus of APP; 1:1,500), clone 22C11 (against the amino-terminus of APP; 1:1,500), clone 6E10 (against amino acids 1-17 of Aβ; 1:1,500), anti-ADAM9 (1:500), and antibodies against ADAM10 (1:500), ADAM17 (1:500) or actin (1:1,500; as an internal reference control). […]

O=C(O[C@@H]1Cc2c(O)cc(O)cc2O[C@@H]1c1cc(O)c(O)c(O)c1)c1cc(O)c(O)c(O)c1 [EGCG, (−)-epigallocatechin-3-gallate]
mature ADAM10, temporal analysis ([1]; 20 μM, as early as 30 min, continued to increase through 120 min): significant increases
mature ADAM10 (~60 kDa isoform) protein level ([1]; various doses of EGCG, 8 h): dose-dependently increased
elevation of α-secretase cleavage activity in brain [2]: 32%
reduction of cerebral soluble Aβ levels [2]: 39%
α-secretase cleavage activity in brain (mean ± s.e.m.) [2]: 890.29±104.41 fluorescence units/mg of total protein
secreted form of APP-α (sAPP-α) in cell cultured medium ([3]; 20 μM for 18 hours): markedly increased
total APP and holo APP expression ([3]; EGCG treated cells): not any changes
α-CTF generation, time course ([3]; in 3 to 4 hours and then through to 8 hours after EGCG treatment): drastically increased
ADAM10 mRNA levels [4]: no significant between-EGCG dose differences
TNF-α levels in cultured medium [5]: no associated elevation
mature ADAM10 [6]: dose-dependent increases
